Experimental data taken from patent US11913884B2, “Visible light-activated dyes and methods of use thereof” (William Marsh Rice University, priority 2019, dated 2024).
Where “and” joins values, the source holds several entries; their conditions need not be identical. Identical values can stand only once.

Columns and labels:
[1] = Photoactivation (turn-on) of thio-caged fluorophores in solution by light irradiation; type: physicochemical
Text: To determine whether a minimal one atom sulfur-for-oxygen substitution within fluorophores can lead to fluorescence quenching, thio-caged Nile Red (SNile Red, FIG. 1) was synthesized, in which a carbonyl group was replaced with a thiocarbonyl moiety. Treatment of Nile Red with Lawesson's reagent in refluxing benzene produced the desired SNile Red in a yield of 40%. […] Irradiation of SNile Red with red light (615 nm, 0.4 μW cm-2) led to the regeneration of fluorescent Nile Red in a high yield (FIG. 2A). The absorption maxima of SNile Red at 298, 368 and 652 nm were blue-shifted after desulfuration to 315 and 556 nm, in a good agreement with the absorption spectrum of authentic synthesized Nile Red (FIG. 2B). The A556/A652 value, representing the ratio of the absorbance maxima of Nile Red and SNile Red, increased from 0.25 to 30 after desulfuration reaction (FIG. 2B). Upon irradiation with red light, the fluorescence intensity of the desulfurated material at 626 nm increased 280-fold, accompanied by a change in fluorescence from dark to red (FIG. 2C). To evaluate the proper light source for SNile Red photoactivation, SNile Red was irradiated with either 470 nm, 615 nm, or 850 nm light for different times and fluorescence intensities at 626 nm were recorded. […] To further characterize the photoactivated product of SNile Red, ^1H NMR and ESI-MS spectral changes were measured in the process of photoactivation (FIG. 2A). […] Signals corresponding to phenyl moiety protons at 8.64, 8.62, 7.85, 7.73, 7.36, 7.04, and 6.79 ppm gradually disappeared, and were replaced by new signals appearing at 8.57, 8.13, 7.81, 7.72, 7.63, 6.85, 6.69 and 6.30 ppm, respectively. […] The photoactivated product was also characterized by ESI-mass spectrometric analysis FIG. 3). The observed m/z 319.2 corresponding to Nile Red confirms the photoactivation product of SNile Red is its oxo form. Both dialkylthioketones and diarylthioketones are known to undergo photo-oxidation reaction under oxygen and light to give the corresponding ketones (Coyle, 1985, Corsaro and Pistara, 1998). To investigate the effects of dissolved oxygen and light on the photoactivation of thio-caged fluorophores, the time profile of the fluorescence of SNile Red was measured in the presence or absence of light, or oxygen. […] To study the effect of oxygen during the photoactivation, the inventors prepared an oxygen-free SNile Red solution by bubbling nitrogen gas and irradiated at 615 nm. […] Inspired by the photoactivation mechanism of thioketones, it was hypothesized that singlet oxygen generated by self-sensitization can be the active species to oxidize thiocarbonyl groups within fluorophores (Coyle, 1985 and Corsaro and Pistara, 1998). […] The singlet oxygen quantum yield (DA) was further determined to be 0.36 with considering the absorption correction factor over the 600-630 nm region (Bonacin et al., 2009 and Adarsh et al., 2010) by referring to methylene blue (MB) (ΦΔ,MB=0.57 in dichloromethane; Li et al., 2013).
Encouraged by the excellent photoactivation properties of SNile Red, Lawesson's reagent was employed to introduce thiocarbonyl moieties into several different fluorophores, such as phthalimide (PI), coumarin (Cou) and acridone (ACD), obtaining yields ranging from 20-80% (FIG. 1). Next, characterization of the spectroscopic and photochemical properties of these thiocaged fluorophores and their oxidized products using UV-vis and fluorescence spectroscopies was performed (Table 1). […] Double thiocarbonyl substitution on 4-dimethylaminophthalimide (4-DMAP, FIG. 1) produced an even larger bathochromic shift of 166 nm. […] It was hypothesized that the red-shift and enhanced absorption seen with thiocarbonyl compounds were due to the reduced energy gap between the HOMO-LUMO in these fluorophores. This is consistent with the computational results discussed below. […]

3T3-L1 cells = assay: CCK-8 assay (cytotoxicity); type: cell-based; settings: 4 μM, 24 hours, Cell Counting Kit-8
Method: Before testing the utility of thio-caged fluorophores for investigating biological systems, the cytotoxicity of SNile Red in adipocytes was evaluated using Cell Counting Kit-8. At a concentration of 4 μM SNile Red, 90% of 3T3-L1 cells remained viable even after 24 hours (FIG. 10). Thio-caged dyes were then used to obtain subcellular structural data via fluorescence imaging of adipocytes. Nile Red and BODIPY are the fluorescent dyes most commonly used for lipid imaging (Corsaro and Pistara, 1998, Spiller et al., 1998, Tang et al., 2013). Confocal laser scanning microscopy (CLSM) was used to determine the specificity of SNile Red localization in adipocytes differentiated from 3T3-L1 cells. For colocalization studies, adipocytes were stained with 2 μM SNile Red and 100 nM BODIPY 493/503 for 10 mins.
3T3-L1 cells were seeded in flat-bottomed 96-well plates, 1×10^4 cells per well, with 200 μL complete culture media for 24 h. […] After 2 hours, the absorbance at 450 nm was read by 96-well plates reader. The viability of […] cells was calculated by the following equation: CV=(As−Ab)/(Ac−Ab)×100%
CV stands for the viability of cells, As, Ac and Ab stand for the absorbance of cells containing SNile Red cell control (0 μM SNile Red) and blank control (wells containing neither cells nor SNile Red).

A556/A652 value ([1]; after desulfuration reaction): 30 | absorption maxima after desulfuration ([1]; after irradiation with red light (615 nm, 0.4 μW cm-2)): 315 nm and 556 nm | A556/A652 value ([1]; before desulfuration reaction): 0.25
SMILES: CCN(CC)c1ccc2nc3c4ccccc4c(=S)cc-3oc2c1 [SNile Red]
fluorescence change at 626 nm with light of shorter wavelengths than 652 nm ([1]; 470 nm or 615 nm light): significant fluorescence enhancement | increase of fluorescence intensity at 626 nm ([1]; 615 nm light in air for 20 mins): 90 fold | activation by light out of the absorbance range ([1]; 850 nm, after 5 hrs): negligible activation | Turn-on (x-fold) ([1]; DMSO, footnote e: 470 nm, 0.4 μW cm^−2): 280^e x-fold | change of fluorescent spectrum ([1]; in the absence of light): no change | change of fluorescence intensity ([1]; oxygen-free solution (nitrogen bubbled), 615 nm, within 20 mins irradiation): no significant change | increase of fluorescence intensity at 626 nm (activation ratio) ([1]; upon irradiation with red light): 280 fold | cells remaining viable (3T3-L1 cells): 90%
